Source: article PMC10052977, “α,ω-Diacyl-Substituted Analogues of Natural and Unnatural Polyamines: Identification of Potent Bactericides That Selectively Target Bacterial Membranes” (International Journal of Molecular Sciences, 2023)
In brackets after ≈: the same amount, converted by molar mass.

Columns and labels:
[1] = test system: Staphylococcus aureus ATCC 25923 or ATCC 29213; assay: MIC, broth dilution (CA-SFM); assay type: cell-based; settings: Staphylococcus aureus ATCC 25923 or ATCC 29213; mean (n = 3); read-out: MIC S. a
[2] = test system: MRSA ATCC 43300; assay: MIC, CO-ADD broth microdilution; assay type: cell-based, Staphylococcus aureus; settings: for MIC: Staphylococcus aureus, MRSA ATCC 43300, mean (n = 2), read-out: MIC MRSA
[3] = test system: Escherichia coli ATCC 25922; assay: MIC, CO-ADD broth microdilution; assay type: cell-based; settings: ATCC25922, mean (n = 2)
[4] = test system: Pseudomonas aeruginosa PAO1 or ATCC 27853; assay: MIC, broth dilution (CA-SFM); assay type: cell-based; settings: mean (n = 3)
[5] = test system: Klebsiella pneumoniae ATCC700603; assay: MIC, CO-ADD broth microdilution; assay type: cell-based; settings: mean (n = 2)
[6] = test system: Acinetobacter baumannii ATCC19606; assay: MIC, CO-ADD broth microdilution; assay type: cell-based; settings: mean (n = 2)
[7] = test system: Candida albicans ATCC90028; assay: Antifungal MIC, CO-ADD; assay type: cell-based; settings: mean (n = 2)
Procedure, shortened: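 Yeast from 3-day YPD cultures was diluted in YNB broth to a final 2.5 × 10^3 CFU/mL and incubated at 35 °C for 36 h without shaking. C. albicans MICs were read by OD530 absorbance. QC used fluconazole and Z'-factor controls.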

[8] = test system: Cryptococcus neoformans ATCC208821; assay: Antifungal MIC, CO-ADD; assay type: cell-based; settings: ATCC208821, Cryptococcus neoformans ATCC208821, mean (n = 2)
Procedure, shortened: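 Fungal strains were grown on YPD agar at 30 °C for 3 days. Five colonies were used to make a yeast suspension of 1 × 10^6 to 5 × 10^6 CFU/mL, which was diluted in yeast nitrogen base (YNB) broth to 2.5 × 10^3 CFU/mL. Covered plates were incubated without shaking at 35 °C for 36 h. Fluconazole was the positive control, and quality was judged from antimicrobial controls and the Z'-factor.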

[9] = Cytotoxicity assay (resazurin); assay type: cell-based, human; settings: human; HEK293 cells; mean (n = 2); highest dose tested 32 μg/mL; read-out: Cytotoxicity (concentration of compound at 50% cytotoxicity, IC50)
[10] = test system: human red blood cells; assay: Hemolytic assay; assay type: cell-based; settings: for Hemolysis (HC10, concentration at 10% hemolytic activity): mean (n = 2)
Procedure, shortened: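 Washed human erythrocytes at 0.5 × 10^8 cells/mL in 0.9% NaCl, shaken 10 min with compound, then held 1 h at 37 °C. Released hemoglobin in supernatant after centrifugation read at OD405; HC10 and HC50 from variable-slope sigmoidal fit against log concentration.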

[11] = test system: P. aeruginosa ATCC27853; assay: Doxycycline potentiation (MIC of antibiotic in presence of synergizing compound); assay type: cell-based, Pseudomonas aeruginosa; settings: doxycycline 2 μg/mL, P. aeruginosa ATCC 27853
[12] = test system: HEK293 human embryonic kidney cells; assay: Cytotoxicity assay (resazurin); assay type: cell-based; settings: HEK293

| SMILES | MIC [1] [µM] | MIC [2] [µM] | MIC [3] [µM] | MIC [4] [µM] | MIC [5] [µM] | MIC ([6]; 18 h) [µM] | MIC [7] [µM] | MIC [8] [µM] | melting point [°C] | MIC [6] [µM] | fold increase (antibiotic enhancement vs intrinsic MIC) [11] [fold] | MIC ([4]; 18 h) [µM] | IC50 at 20 h [9] [µM] | Hemolysis (HC10, concentration at 10% hemolytic activity) [10] [µM] | antibiotic enhancement of doxycycline [11] | activity towards MRSA [2] | cytotoxicity [12] | hemolytic properties [10] |
| --- | --- | --- | --- | --- | --- | --- | --- | --- | --- | --- | --- | --- | --- | --- | --- | --- | --- | --- |
| Cl.Cl.S=C(NCCCNCCCCNCCCNC(=S)NC(c1ccccc1)c1ccccc1)NC(c1ccccc1)c1ccccc1 [Compound 6a, N^1,N^4-Bis(3-(3-benzhydrylthioureido)propyl)butane-1,4-diaminium chloride] | > 276 | ≤ 0.34 | 2.8 | 138 | > 44.1 | ≤ 0.35 | ≤ 0.34 | 11 | 168 to 169 |  |  |  | > 44.1 | 7.73 |  |  |  |  |
| Cl.Cl.S=C(NCCCNCCCCCCCCCCNCCCNC(=S)NC(c1ccccc1)c1ccccc1)NC(c1ccccc1)c1ccccc1 [Compound 6e, N^1,N^10-Bis(3-(3-benzhydrylthioureido)propyl)decane-1,10-diaminium chloride] | > 247 | ≤ 0.31 | ≤ 0.31 | 247 | > 39.5 |  | ≤ 0.31 | > 39.5 | 114 to 115 | 4.9 |  |  | > 39.5 | >39.5 | particularly strong enhancers |  |  |  |
| Cl.Cl.S=C(NCCCNCCCCCCCCNCCCNC(=S)NC(c1ccccc1)c1ccccc1)NC(c1ccccc1)c1ccccc1 [Compound 6d, N^1,N^8-Bis(3-(3-benzhydrylthioureido)propyl)octane-1,8-diaminium chloride] | 6.25 | ≤ 0.32 | ≤ 0.32 | 100 | 40.9 |  | ≤ 0.32 | 20.5 | 113 to 115 | 5.1 |  |  | 10.1 | 2.07 |  |  |  |  |
| Cl.Cl.S=C(NCCCNCCCCCCCCCCCCNCCCNC(=S)NC(c1ccccc1)c1ccccc1)NC(c1ccccc1)c1ccccc1 [Compound 6f, N^1,N^12-Bis(3-(3-benzhydrylthioureido)propyl)dodecane-1,12-diaminium chloride] | > 239 | ≤ 0.3 | 2.4 | 120 | > 38.2 |  | ≤ 0.3 | > 38.2 | 103 to 104 | > 38.2 |  |  | ≤ 0.298 | >38.2 |  |  |  |  |
| Cl.Cl.S=C(NCCCNCCCCCCCNCCCNC(=S)NC(c1ccccc1)c1ccccc1)NC(c1ccccc1)c1ccccc1 [Compound 6c, N^1,N^7-Bis(3-(3-benzhydrylthioureido)propyl)heptane-1,7-diaminium chloride] | 65 | ≤ 0.33 | ≤ 0.33 | > 260 | > 41.7 |  | ≤ 0.33 | 0.65 | 115 to 116 | 2.6 |  |  | > 41.7 | ≤0.326 |  |  |  |  |

Second part, led by results:

| MIC [1] [µM] | MIC [2] [µM] | MIC [3] [µM] | MIC [4] [µM] | MIC [5] [µM] | MIC ([6]; 18 h) [µM] | MIC [7] [µM] | MIC [8] [µM] | melting point [°C] | MIC [6] [µM] | fold increase (antibiotic enhancement vs intrinsic MIC) [11] [fold] | MIC ([4]; 18 h) [µM] | SMILES | IC50 at 20 h [9] [µM] | Hemolysis (HC10, concentration at 10% hemolytic activity) [10] [µM] | antibiotic enhancement of doxycycline [11] | activity towards MRSA [2] | cytotoxicity [12] | hemolytic properties [10] |
| --- | --- | --- | --- | --- | --- | --- | --- | --- | --- | --- | --- | --- | --- | --- | --- | --- | --- | --- |
|  |  |  |  |  |  |  |  | 134 to 137 |  |  |  | O=C(O)CCC(=O)NCCC(c1ccccc1)c1ccccc1 [Compound 10, 4-((3,3-diphenylpropyl)amino)-4-oxobutanoic acid] |  |  |  |  |  |  |
| 6.25 | ≤ 0.3 | ≤ 0.3 | 50 | > 37.8 |  | > 37.8 | > 37.8 |  | > 37.8 | 4 |  | O=C(CC(c1ccccc1)c1ccccc1)NCCCNCCCCNCCCNC(=O)CC(c1ccccc1)c1ccccc1.O=C(O)C(F)(F)F.O=C(O)C(F)(F)F [Compound 15a, N^1,N^4-Bis(3-(3,3-diphenylpropanamido)propyl)butane-1,4-diaminium 2,2,2-trifluoroacetate] | > 37.8 | >37.8 |  |  |  |  |
| 6.25 | ≤ 0.26 | > 32.7 | > 100 | > 32.7 |  | > 32.7 | > 32.7 |  | > 32.7 |  |  | O=C(CCC(=O)NCCCc1ccccc1)NCCCNCCCCCCCCCCCCNCCCNC(=O)CCC(=O)NCCCc1ccccc1.O=C(O)C(F)(F)F.O=C(O)C(F)(F)F [Compound 14f, N^1,N^12-Bis(3-(4-oxo-4-((3-phenylpropyl)amino)butanamido)propyl)dodecane-1,12-diaminium 2,2,2-trifluoroacetate] | > 32.7 | >32.7 |  | potent | non-toxic | non-hemolytic |
|  |  |  |  |  |  |  |  | 94 to 95 |  |  |  | O=C(O)CCC(=O)NCCCc1ccccc1 [Compound 8, 4-oxo-4-((3-phenylpropyl)amino)butanoic acid] |  |  |  |  |  |  |
| 24 (≈ 19.6 µg/mL) | ≤ 0.24 | > 30.6 | 480 (≈ 392 µg/mL) | > 30.6 |  | > 30.6 | > 30.6 |  | > 30.6 |  |  | O=C(CCC(=O)NCCC(c1ccccc1)c1ccccc1)NCCCNCCCCCCNCCCNC(=O)CCC(=O)NCCC(c1ccccc1)c1ccccc1 [Compound 16b, N^1,N^6-Bis(3-(4-((3,3-diphenylpropyl)amino)-4-oxobutanamido)propyl)hexane-1,6-diaminium 2,2,2-trifluroracetate] | > 30.6 | >30.6 |  |  |  |  |
| 50 | 19.8 | > 39.7 | 300 | > 39.7 |  | > 39.7 | > 39.7 |  | > 39.7 |  |  | O=C(CCc1ccccc1)NCCCNCCCCCCCCCCCCNCCCNC(=O)CCc1ccccc1.O=C(O)C(F)(F)F.O=C(O)C(F)(F)F [Compound 13f, N^1,N^12-Bis(3-(3-phenylpropanamido)propyl)dodecane-1,12-diaminium 2,2,2-trifluoroacetate] | > 39.7 | >39.7 |  | weak |  |  |
| 25 | ≤ 0.25 | > 31.5 |  | > 31.5 |  | > 31.5 | ≤ 0.28 |  | > 31.5 | 8 | 20 | O=C(CCC(=O)NCCC(c1ccccc1)c1ccccc1)NCCCNCCCCNCCCNC(=O)CCC(=O)NCCC(c1ccccc1)c1ccccc1.O=C(O)C(F)(F)F.O=C(O)C(F)(F)F [Compound 16a, N^1,N^4-Bis(3-(4-((3,3-diphenylpropyl)amino)-4-oxobutanamido)propyl)butane-1,4-diaminium 2,2,2-trifluoroacetate] | > 31.5 | >31.5 |  |  |  |  |
